Results as given in patent US20110166121A1 (LG LIFE SCIENCES LTD., priority 2008, published 2011).
pIC50, pKi: −log10 of the molar value.

Tests used:
Human P2Y12 receptor = biological target: T1, Human P2Y12 receptor (Homo sapiens, UniProt Q9H244); assay: Human P2Y12 receptor cell membrane binding assay with [3H] 2-Mes-ADP; conditions: 1 nM [3H] 2-Mes-ADP, membranes of HEK cells expressing P2Y12 receptor; read-out: Binding activity (IC50)
T1 construct: expressed in transfected cells; host or cells: HEK cells
Protocol: Human P2Y12 Receptor Cell Membrane Binding Assay with [^3H] 2-Mes-ADP
Whether test compounds bind to P2Y12 receptor is measured by [3H]-2MesADP binding in HEK cells expressing P2Y12 receptor. The efficacy according to the amount of test compound can be known through the above test, competitive binding test to P2Y12 receptor, in which the binding material (2-Mes-ADP) is labeled with radioactivity isotope and then the extent of inhibition against the binding of radioactively labeled material is measured.
Preparation of P2Y12 Membrane Protein Fraction
Harvested P2Y12 cells were resuspended with Hypotonic buffer (10 mM HEPES, 10 mM NaCl, 1 mM EDTA, 1 mM EGTA pH 7.4) containing protease inhibitor cocktail. Following the incubation on ice for 15 min, cells were homogenized on ice (Glass/Teflon homogenizer; 1,000 rpm, 10 strokes). The supernant was taken from centrifugation at 500×g for 15 min and then recentrifuged the supernant at 30,000 rpm for 30 min. The membrane pellet was adjusted to 1 mg/mL concentration and stored at −80° C.
P2Y12 Receptor Cell Membrane Binding Assay with [3H] 2-Mes-ADP
The volume of 100 μL of 200 μg membrane protein was aliquoted into 96 well plate. 50 μL volume of test compounds and [^3H] 2-Mes-ADP (final: 1 nM) were added into each well. The total reaction of 0.2 ml/well was incubated for 1 hour at R.T. The reaction was terminated by filtration through GF/B filter using a 96-well cell harvester. […] Radioactivity bound to P2Y12 receptor membrane was counted in a scintillation counter. Total binding was determined with CPM of test group having no compound and non-specific binding was determined with CPM of test group containing 10 μM 2-Mes-ADP. Binding inhibition percent was calculated as follows: [100−(specific binding in the presence of test material/specific binding in the absence of test material×100)].

[1] = tested on: Human platelet aggregation caused by ADP; assay: Inhibition of ADP-induced platelet aggregation (Mimic-human PRP); assay type: cell-based; conditions: 20 μM ADP, human platelet concentrate diluted with PPP, absorption at 595 nm
In short: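 Ki came from non-linear sigmoidal fits of inhibition, measured as the 3-min rise in absorbance at 595 nm after 20 μM ADP, relative to 0/20 μM ADP controls. Platelets (3–4×10^8/mL in PPP-diluted human PRP) were exposed to 0.01–30 μM compound for 20 min at room temperature beforehand.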

T1 sequence (Q9H244 whole entry): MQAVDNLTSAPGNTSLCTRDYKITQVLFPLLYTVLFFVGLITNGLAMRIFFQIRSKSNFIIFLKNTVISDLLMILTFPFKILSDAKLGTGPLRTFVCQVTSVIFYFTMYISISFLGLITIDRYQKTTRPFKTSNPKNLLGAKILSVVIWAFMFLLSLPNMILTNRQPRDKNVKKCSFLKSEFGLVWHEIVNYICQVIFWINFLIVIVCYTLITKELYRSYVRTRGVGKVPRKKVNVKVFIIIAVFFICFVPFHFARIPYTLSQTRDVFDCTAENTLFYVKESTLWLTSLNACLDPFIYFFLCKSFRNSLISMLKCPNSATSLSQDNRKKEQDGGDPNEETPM

SMILES | pIC50 (Human P2Y12 receptor) | pKi [1]
CCCc1cc2c(N3CCn4c(nnc4C(F)(F)F)C3)nc(OCCN(C)C(C)=O)nc2s1 [Example 9-97, N-Methyl-N-{2-[6-propyl-4-(3-trifluoromethyl-5,6-dihydro-8H-[1,2,4]triazolo[4,3-a]pyrazin-7-yl)-thieno[2,3-d]pyrimidin-2-yloxy]-ethyl}-acetamide] | – | 8.22
CCCc1cc2c(N3CCn4c(nnc4C(F)(F)F)C3)nc(OCCN(CCO)C(=O)OC)nc2s1 [Example 9-98, (2-Hydroxy-ethyl)-{2-[6-propyl-4-(3-trifluoromethyl-5,6-dihydro-8H-[1,2,4]triazolo[4,3-a]pyrazin-7-yl)-thieno[2,3-d]pyrimidin-2-yloxy]-ethyl}-carbamic acid methyl ester] | – | 7.64
CCCc1cc2c(N3CCn4c(nnc4C(F)(F)F)C3)nc(OCCN3CCOC3=O)nc2s1 [Example 9-99, 3-{2-[6-Propyl-4-(3-trifluoromethyl-5,6-dihydro-8H-[1,2,4]triazolo[4,3-a]pyrazin-7-yl)-thieno[2,3-d]pyrimidin-2-yloxy]-ethyl}-oxazolidin-2-one] | – | 8.40
CCCc1cc2c(N3CCn4c(nnc4C(F)(F)F)C3)nc(OCCN(CCOC(C)=O)C(C)=O)nc2s1 [Example 9-100, Acetic Acid 2-(acetyl-{2-[6-propyl-4-(3-trifluoromethyl-5,6-dihydro-8H-[1,2,4]triazolo[4,3-a]pyrazin-7-yl)-thieno[2,3-d]pyrimidin-2-yloxy]-ethyl}-amino)-ethyl ester] | – | 7.42
CCCc1cc2c(N3CCn4c(nnc4C(F)(F)F)C3)nc(OCCN(C=O)CCO)nc2s1 [Example 9-101, N-(2-Hydroxy-ethyl)-N-{2-[6-propyl-4-(3-trifluoromethyl-5,6-dihydro-8H-[1,2,4]triazolo[4,3-a]pyrazin-7-yl)-thieno[2,3-d]pyrimidin-2-yloxy]-ethyl}-formamide] | – | 7.92
CCCc1cc2c(N3CCn4c(nnc4C(F)(F)F)C3)nc(OCCN(CCO)C(C)=O)nc2s1 [Example 9-102, N-(2-Hydroxy-ethyl)-N-{2-[6-propyl-4-(3-trifluoromethyl-5,6-dihydro-8H-[1,2,4]triazolo[4,3-a]pyrazin-7-yl)-thieno[2,3-d]pyrimidin-2-yloxy]-ethyl}-acetamide] | – | 8.10
CCCc1cc2c(N3CCn4c(nnc4C(F)(F)F)C3)nc(N(C)CCC#N)nc2s1 [Example 9-103, 3-{Methyl-[6-propyl-4-(3-trifluoromethyl-5,6-dihydro-8H-[1,2,4]triazolo[4,3-a]pyrazin-7-yl)-thieno[2,3-d]pyrimidin-2-yl]-amino}-propionitrile] | – | 7.15
CCCc1cc2c(N3CCn4c(nnc4C(F)(F)F)C3)nc(N(C)CCC(N)=O)nc2s1 [Example 9-104, 3-{Methyl-[6-propyl-4-(3-trifluoromethyl-5,6-dihydro-8H-[1,2,4]triazolo[4,3-a]pyrazin-7-yl)-thieno[2,3-d]pyrimidin-2-yl]-amino}-propionamide] | – | 7.85
CCCc1cc2c(N3CCn4c(nnc4C(F)(F)F)C3)nc(OCCN3C(=O)CNC3=O)nc2s1 [Example 9-105, 3-{2-[6-Propyl-4-(3-trifluoromethyl-5,6-dihydro-8H-[1,2,4]triazolo[4,3-a]pyrazin-7-yl)-thieno[2,3-d]pyrimidin-2-yloxy]-ethyl}-imidazolidine-2,4-dione] | – | < 5.52
CCCc1cc2c(N3CCn4c(nnc4C(F)(F)F)C3)nc(N(C)CCO)nc2s1 [Example 9-106, 2-{Methyl-[6-propyl-4-(3-trifluoromethyl-5,6-dihydro-8H-[1,2,4]triazolo[4,3-a]pyrazin-7-yl)-thieno[2,3-d]pyrimidin-2-yl]-amino}-ethanol] | – | 6.85
CCCc1cc2c(N3CCn4c(nnc4C(F)(F)F)C3)nc(NC(=O)OC)nc2s1 [Example 9-107, [6-Propyl-4-(3-trifluoromethyl-5,6-dihydro-8H-[1,2,4]triazolo[4,3-a]pyrazin-7-yl)-thieno[2,3-d]pyrimidin-2-yl]-carbamic acid methyl ester] | – | 6.77

Further lines, with some results ahead:

pIC50 (Human P2Y12 receptor) | SMILES | pKi [1]
6.80 | CCCc1cc2c(N3CCn4c(nnc4C(F)(F)F)C3)nc(NCC(O)CO)nc2s1 (stereo not drawn) [Example 1-2, 3-[6-Propyl-4-(3-trifluoromethyl-5,6-dihydro-8H-[1,2,4]triazolo[4,3-a]pyrazin-7-yl)-thieno[2,3-d]pyrimidin-2-ylamino]-propane-1,2-diol] | –
7.55 | CCCc1cc2c(N3CCn4c(nnc4C(F)(F)F)C3)nc(N3CCc4[nH]ncc4C3)nc2s1 [Example 1-76, 7-[6-Propyl-2-(1,4,6,7-tetrahydro-pyrazolo[4,3-c]pyridin-5-yl)-thieno[2,3-d]pyrimidin-4-yl]-3-trifluoromethyl-5,6,7,8-tetrahydro-[1,2,4]triazolo[4,3-a]pyrazine] | –
7.37 | CCCc1cc2c(N3CCn4c(nnc4C(F)(F)F)C3)nc(N3CCc4c(nc(C)nc4C(F)(F)F)C3)nc2s1 [Example 1-80, 2-Methyl-7-[6-propyl-4-(3-trifluoromethyl-5,6-dihydro-8H-[1,2,4]triazolo[4,3-a]pyrazin-7-yl)-thieno[2,3-d]pyrimidin-2-yl]-4-trifluoromethyl-5,6,7,8-tetrahydro-pyrido[3,4-d]pyrimidine] | –
5.71 | CCCc1cc2c(N3CCn4c(nnc4C(F)(F)F)C3)nc(Nc3nc(C(=O)OCC)cs3)nc2s1 [Example 1-131, 2-[6-Propyl-4-(3-trifluoromethyl-5,6-dihydro-8H-[1,2,4]triazolo[4,3-a]pyrazin-7-yl)thieno[2,3-d]pyrimidin-2-ylamino]thiazole-4-carboxylic acid ethyl ester] | –
5.96 | Cc1cc2c(N3CCn4c(nnc4C(F)(F)F)C3)nc(N3CCNC(=O)C3)nc2s1 [Example 2-1, 4-[6-Methyl-4-(3-trifluoromethyl-5,6-dihydro-8H-[1,2,4]triazolo[4,3-a]pyrazin-7-yl)-thieno[2,3-d]pyrimidin-2-yl]-piperazin-2-one] | –
6.07 | CCc1cc2c(N3CCn4c(nnc4C(F)(F)F)C3)nc(NCC(O)CO)nc2s1 (stereo not drawn) [Example 2-3, 3-[6-Ethyl-4-(3-trifluoromethyl-5,6-dihydro-8H-[1,2,4]triazolo[4,3-a]pyrazin-7-yl)-thieno[2,3-d]pyrimidin-2-ylamino]-propane-1,2-diol] | –
5.05 | CCc1cc2c(N3CCn4c(nnc4C(F)(F)F)C3)nc(N[C@@H]3C[C@H](OCCO)[C@@H](O)[C@H]3O)nc2s1 [Example 2-4, (1S,2S,3R,5S)-3-[6-Ethyl-4-(3-trifluoromethyl-5,6-dihydro-8H-[1,2,4]triazolo[4,3-a]pyrazin-7-yl)-thieno[2,3-d]pyrimidin-2-ylamino]-5-(2-hydroxy-ethoxy)-cyclopentane-1,2-diol] | –
5.64 | CCc1cc2c(N3CCn4c(nnc4C(F)(F)F)C3)nc(NCCN)nc2s1 [Example 2-8, N*1*-[6-Ethyl-4-(3-trifluoromethyl-5,6-dihydro-8H-[1,2,4]triazolo[4,3-a]pyrazin-7-yl)-thieno[2,3-d]pyrimidin-2-yl]-ethane-1,2-diamine] | –
5.66 | CCc1cc2c(N3CCn4c(nnc4C(F)(F)F)C3)nc(NCC(=O)O)nc2s1 [Example 2-9, [6-Ethyl-4-(3-trifluoromethyl-5,6-dihydro-8H-[1,2,4]triazolo[4,3-a]pyrazin-7-yl)-thieno[2,3-d]pyrimidin-2-ylamino]-acetic acid] | –
5.74 | CC(C)c1cc2c(N3CCn4c(nnc4C(F)(F)F)C3)nc(NCCO)nc2s1 [Example 2-11, 2-[6-Isopropyl-4-(3-trifluoromethyl-5,6-dihydro-8H-[1,2,4]triazolo[4,3-a]pyrazin-7-yl)-thieno[2,3-d]pyrimidin-2-ylamino]-ethanol] | –
5.96 | CC(C)c1cc2c(N3CCn4c(nnc4C(F)(F)F)C3)nc(N3CCN(C)CC3)nc2s1 [Example 2-13, 7-[6-Isopropyl-2-(4-methyl-piperazin-1-yl)-thieno[2,3-d]pyrimidin-4-yl]-3-trifluoromethyl-5,6,7,8-tetrahydro-[1,2,4]triazolo[4,3-a]pyrazine] | –
6.89 | CCCc1cc2c(N3CCn4c(nnc4C(F)(F)F)C3)nc(OC3Cc4ccccc4C3)nc2s1 [Example 3-22, 7-[2-(Indan-2-yloxy)-6-propyl-thieno[2,3-d]pyrimidin-4-yl]-3-trifluoromethyl-5,6,7,8-tetrahydro-[1,2,4]triazolo[4,3-a]pyrazine] | –
6.39 | CCc1cc2c(N3CCn4c(nnc4C(F)(F)F)C3)nc(OCC(O)CO)nc2s1 (stereo not drawn) [Example 3-49, 3-[6-Ethyl-4-(3-trifluoromethyl-5,6-dihydro-8H-[1,2,4]triazolo[4,3-a]pyrazin-7-yl)-thieno[2,3-d]pyrimidin-2-yloxy]-propane-1,2-diol] | –
